Assay results: the supplement of paper PMC10307832

How the values were obtained:
BMX-IN-1 + Luminespib = compound: C=CC(=O)Nc1cc(-n2c(=O)ccc3cnc4ccc(-c5ccc(NS(C)(=O)=O)cc5)cc4c32)ccc1C [BMX-IN-1] + CCNC(=O)c1noc(-c2cc(C(C)C)c(O)cc2O)c1-c1ccc(CN2CCOCC2)cc1 [Luminespib] (partner 0.01 µM); experiment: relative viability (nuclei count vs DMSO), 5 days (fraction); higher = more cells survive
How it was run: (§1)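 Values are medians from duplicate plates. Each reflects relative viability, defined as the nuclei count of treated wells over that of vehicle wells. Lung cancer cell lines in 1536-well plates were pin-tool dosed one day after seeding with one drug alone or with a fixed anchor-drug dose plus five library-drug doses (not always all listed) in √10 steps, then fixed, stained and imaged at 4× after 5 days.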

Ibrutinib + Navitoclax = compound: C=CC(=O)N1CCC[C@@H](n2nc(-c3ccc(Oc4ccccc4)cc3)c3c(N)ncnc32)C1 [Ibrutinib] + CC1(C)CCC(c2ccc(Cl)cc2)=C(CN2CCN(c3ccc(C(=O)NS(=O)(=O)c4ccc(N[C@H](CCN5CCOCC5)CSc5ccccc5)c(S(=O)(=O)C(F)(F)F)c4)cc3)CC2)C1 [Navitoclax] (partner 0.5 µM); experiment: as above
How it was run: as §1

Cell Line	relative viability (BMX-IN-1 + Luminespib; first compound 0.02 µM)	relative viability (BMX-IN-1 + Luminespib; first compound 0.2 µM)	relative viability (BMX-IN-1 + Luminespib; first compound 0.6325 µM)	relative viability (BMX-IN-1 + Luminespib; first compound 2 µM)	relative viability (Ibrutinib + Navitoclax; first compound 0.005 µM)	relative viability (Ibrutinib + Navitoclax; first compound 0.01581 µM)	relative viability (Ibrutinib + Navitoclax; first compound 0.05 µM)	relative viability (Ibrutinib + Navitoclax; first compound 0.1581 µM)	relative viability (Ibrutinib + Navitoclax; first compound 0.5 µM)
201T	1.07	1.1	1.09	0.98	1.22	1.17	1.17	1.22	1.17
A549					1.26	1.2	1.23	1.3	1.19
A-427	1.13	0.844	1.01	1.04	0.861	0.923	0.985	0.98	0.92
ABC-1	0.586	0.571	0.359	0.322					
BEN	0.417	0.332	0.328	0.364	0.0796	0.0705	0.0699	0.0622	0.0639
CAL-12T	0.578	0.483	0.392	0.712		1.16	1.33	1.37	0.951
COR-L23	0.807	0.782	1.07	0.548	1.14	1	1.04	1.16	1.11
COR-L 105	0.753	0.693	0.928	0.706	0.548	0.74	0.625	0.681	0.385
Calu-6					0.954	0.746	0.771	0.955	0.756
ChaGo-K-1	0.665	0.708	0.536	0.778	0.506	1.12	0.933		1.19
EBC-1					0.441	0.433	0.516	0.349	0.388
EKVX	0.945	0.835	0.85	0.857	0.868	0.96	0.915	0.806	0.485
EMC-BAC-2	1.36	1.33	1.4	1.1	1.16	1.06	1.01	1.16	1.02
EPLC-272H	0.208	0.223	0.242	0.247		0.982	1.07	1.28	0.694
H3255	0.851	0.907	1.02	0.927	0.539	0.511	0.226	0.425	0.157
HARA	1.01	0.207	0.683	0.682	1.17	1.1	1.12	1.15	0.791
HCC-15	0.571	0.363	0.297	0.369	0.741	0.62	0.701	0.727	0.673
HCC-44	1.29	1.27	0.821	1.04	0.977	0.913	0.935	0.995	0.919
HCC-78					0.785	0.746	0.722	0.696	0.566
HCC-366					0.986	0.977	1.06		

Cell Line	relative viability (BMX-IN-1 + Luminespib; first compound 0.02 µM)	relative viability (BMX-IN-1 + Luminespib; first compound 0.2 µM)	relative viability (BMX-IN-1 + Luminespib; first compound 0.6325 µM)	relative viability (BMX-IN-1 + Luminespib; first compound 2 µM)	relative viability (Ibrutinib + Navitoclax; first compound 0.005 µM)	relative viability (Ibrutinib + Navitoclax; first compound 0.01581 µM)	relative viability (Ibrutinib + Navitoclax; first compound 0.05 µM)	relative viability (Ibrutinib + Navitoclax; first compound 0.1581 µM)	relative viability (Ibrutinib + Navitoclax; first compound 0.5 µM)
HCC-827	0.589	0.805	0.716	0.713	1.01	0.995	1.08	1.04	0.434
HOP-62	1.08	1.06	0.891	0.926	1.16	1.11	1.16	1.07	1.2
IA-LM					0.768	0.853	0.79	0.79	0.951
LC-2-ad	1.16	1.1	0.884	0.974	0.408	0.362	0.535	0.477	0.402
LCLC-97TM1	0.969	0.856	0.817	0.823	0.486	0.561	0.474	0.398	0.377
LCLC-103H	1.1	0.933	0.956	0.882					
LK-2	0.197	0.219	0.176	0.207		0.7	0.851	0.956	0.75
LOU-NH91	0.3		0.363	0.315	0.601	0.572	0.549	0.585	0.407
LU99A	0.216	0.181	0.227	0.258	0.725	0.684	0.772	0.814	0.664
LXF-289	0.816	0.809	0.825	0.671	1.02	0.895	0.956	0.97	0.917
NCI-H23	0.209	0.203	0.22	0.208	0.853	0.886	0.771	0.787	0.97
NCI-H322M	0.847	0.807	0.756	0.883	1.21	1.18	1.26	1.25	0.724
NCI-H358	0.444	0.308	0.405	0.327					
NCI-H441	0.384	0.428	0.56	0.279	0.561	0.556	0.601	0.731	0.733
NCI-H460	0.0361	0.0362	0.0299	0.0331	1.27	1.01	1.09	1.2	1.13
NCI-H520	0.243	0.231	0.243	0.218	1.02	1.08	1.21	1.13	0.959
NCI-H522	1.24	1.26	1.1	1.19					
NCI-H596	0.917	1.02	1.02	1.01	0.924	0.867	0.852	0.962	0.681
NCI-H647	0.242	0.294	0.179	0.379	1.09	1.13	1.22	1.05	1.1
NCI-H650	0.789	0.831	0.914	0.773					
